From paper PMC10053865 (2023)

Assays:
[1] = system: Cocaine aptamer (Au-supported sensor) (DNA, aptamer) GACAAGGAAAATCCTTCAACGAAGTGGGTC; experiment: square-wave voltammetry (80 Hz), Hill fit; conditions: 137 mM NaCl, 2.7 mM KCl; 1x PBS pH 7.4, 23 °C; apparent; procaine hydrochloride
[2] = system: Cocaine aptamer (ITO-supported sensor) (DNA, aptamer) GACAAGGAAAATCCTTCAACGAAGTGGGTC; experiment: square-wave voltammetry (60 Hz), Hill fit; conditions: 137 mM NaCl, 2.7 mM KCl; 1x PBS pH 7.4, 23 °C; apparent; procaine hydrochloride

KD-Au [1]: 63.7 ± 9.3 mM
KD-ITO [2]: 6.2 ± 0.6 mM
Structure (SMILES): CCN(CC)CCOC(=O)c1ccc(N)cc1
